According to ChEMBL document CHEMBL5143556, “Molecular hybridization used to design and synthesize neo-tanshinlactone derivatives as PD-1/PD-L1 inhibitors” (Bioorg Med Chem, 2022):
Active and inactive are the calls of the source. No cut-off for these calls is given here.

Legend:
MC-38 [1] = assay: Antitumour activity against mouse MC38 cells implanted in C57BL6 mouse assessed increase in CD4-CD8+PD-1+ cells at 10 to 25 mg/kg, IG for 16 days by flow cytometric analysis; assay type: functional, organism-based; details: dose 10-25 mg/kg, time 16.0 day
Jurkat [2] = assay: Induction of anti-CD3/CD28 antibodies-stimulated human Jurkat T cell activation co-cultured with MDA-MB-231 cells assessed as increase granzyme B protein expression in CD8+ cells at 5 uM after 48 hrs by flow cytometric analysis; assay type: functional, cell-based
MC-38 [3] = assay: Antitumour activity against mouse MC38 cells implanted in C57BL6 mouse assessed reduction in tumor growth at 10 to 25 mg/kg, IG for 16 days by Ki67 staining based immunohistochemical analysis; assay type: functional, organism-based; details: dose 10-25 mg/kg, time 16.0 day
Jurkat [4] = assay: Induction of anti-CD3/CD28 antibodies-stimulated human Jurkat T cell activation co-cultured with MDA-MB-231 cells assessed as increase IFN-gamma protein expression in CD8+ cells at 5 uM after 48 hrs by flow cytometric analysis; assay type: functional, cell-based
MC-38 [5] = assay: Antitumour activity against mouse MC38 cells implanted in C57BL6 mouse assessed reduction in tumor weight at 10 to 25 mg/kg, IG for 16 days; assay type: functional, organism-based; details: dose 10-25 mg/kg, time 16.0 day
MC-38 [6] = assay: Antitumour activity against mouse MC38 cells implanted in C57BL6 mouse assessed decrease in CD4+CD8-PD1+ cells at 10 to 25 mg/kg, IG for 16 days by flow cytometric analysis; assay type: functional, organism-based; details: dose 10-25 mg/kg, time 16.0 day
Jurkat [7] = assay: Induction of anti-CD3/CD28 antibodies-stimulated human Jurkat T cell activation co-cultured with MDA-MB-231 cells assessed as increase granzyme B protein expression in CD8+ cells at 5 uM in presence of PMA and ionomycin after 48 hrs by flow cytometric analysis; assay type: functional, cell-based
MC-38 [8] = assay: Antitumour activity against mouse MC38 cells implanted in C57BL6 mouse assessed reduction in tumor size at 10 to 25 mg/kg, IG for 16 days; assay type: functional, organism-based; details: dose 10-25 mg/kg, time 16.0 day
Jurkat [9] = assay: Induction of cell proliferation in human Jurkat T cells co-cultured with MDA-MB-231 cells assessed as increase in cell viability at < 5 uM after 48 hrs by CFSE staining based flow cytometric analysis; assay type: functional
Jurkat [10] = assay: Cytotoxicity against human Jurkat T cells co-cultured with MDA-MB-231 cells assessed as reduction in cell viability at 50 uM after 48 hrs by CFSE staining based flow cytometric analysis; assay type: toxicity
Jurkat [11] = assay: Induction of anti-CD3/CD28 antibodies-stimulated human Jurkat T cell activation co-cultured with MDA-MB-231 cells assessed as increase TNFalpha protein expression in CD8+ cells at 5 uM in presence of PMA and ionomycin after 48 hrs by flow cytometric analysis; assay type: functional, cell-based
MC-38 [12] = assay: Antitumour activity against mouse MC38 cells implanted in C57BL6 mouse assessed reduction in tumor growth at 10 to 25 mg/kg, IG for 16 days by PCNA staining based immunohistochemical analysis; assay type: functional, organism-based; details: dose 10-25 mg/kg, time 16.0 day
MC-38 [13] = assay: Antitumour activity against mouse MC38 cells implanted in C57BL6 mouse assessed increase in CD4-CD8+Tim3+ cells at 10 to 25 mg/kg, IG for 16 days by flow cytometric analysis; assay type: functional, organism-based; details: dose 10-25 mg/kg, time 16.0 day
Jurkat [14] = assay: Induction of anti-CD3/CD28 antibodies-stimulated human Jurkat T cell activation co-cultured with MDA-MB-231 cells assessed as increase IFN-gamma protein expression in CD8+ cells in presence of PMA and ionomycin at 5 uM after 48 hrs by flow cytometric analysis; assay type: functional, cell-based
MC-38 [15] = assay: Antitumour activity against mouse MC38 cells implanted in C57BL6 mouse assessed increase in CD4+CD8-Tim3+ cells at 10 to 25 mg/kg, IG for 16 days by flow cytometric analysis; assay type: functional, organism-based; details: dose 10-25 mg/kg, time 16.0 day
Jurkat [16] = assay: Induction of anti-CD3/CD28 antibodies-stimulated human Jurkat T cell activation co-cultured with MDA-MB-231 cells assessed as increase TNFalpha protein expression in CD8+ cells at 5 uM after 48 hrs by flow cytometric analysis; assay type: functional, cell-based
SK-BR-3 = assay: Antiproliferative activity against human SK-BR-3 cells assessed as reduction in […]; assay type: functional, cell-based
MCF7 = assay: Antiproliferative activity against human MCF7 cells assessed as reduction in […]; assay type: functional, cell-based
ZR-75-1 = assay: Antiproliferative activity against human ZR-75-1 cells assessed as reduction in […]; assay type: functional, cell-based
[17] = Cytotoxicity against T cell (unknown origin); assay type: toxicity, cell-based, Homo sapiens; details: T cells
Jurkat [18] = assay: Cytotoxicity against human Jurkat T cells co-cultured with MDA-MB-231 cells assessed as reduction in cell viability at 5 to 10 uM after 48 hrs by CFSE staining based flow cytometric analysis; assay type: toxicity; details: dose 5-10 µM
MC-38 [19] = assay: Antitumour activity against mouse MC38 cells implanted in C57BL6 mouse assessed reduction in tumor weight at 25 mg/kg, IG for 16 days; assay type: functional, organism-based; details: time 16.0 day
MC-38 [20] = assay: Antitumour activity against mouse MC38 cells implanted in C57BL6 mouse assessed increase in CD4+CD8- cells at 25 mg/kg, IG for 16 days by flow cytometric analysis; assay type: functional, organism-based; details: time 16.0 day
MC-38 [21] = assay: Antitumour activity against mouse MC38 cells implanted in C57BL6 mouse assessed reduction in tumor size at 25 mg/kg, IG for 16 days; assay type: functional, organism-based; details: time 16.0 day
MC-38 [22] = assay: Antitumour activity against mouse MC38 cells implanted in C57BL6 mouse assessed increase in CD4+CD8-Tim3+ cells at 25 mg/kg, IG for 16 days by flow cytometric analysis; assay type: functional, organism-based; details: time 16.0 day

Row | SMILES | Activity (Jurkat [2]) | Activity (Jurkat [4]) | Activity (Jurkat [7]) | Activity (Jurkat [9]) | Activity (Jurkat [10]) | Activity (Jurkat [11]) | Activity (Jurkat [14]) | Activity (Jurkat [16]) | EC50 [17] [nM] | other results
1 | Cc1c(COc2ccc(CN3Cc4ccccc4C[C@@H]3C(=O)O)c(Oc3cc(=O)oc4c3ccc3ccccc34)c2)cccc1-c1ccccc1 | Active | Active | Active | Active | Toxic | Active | Active | Active | – | Activity (MC-38 [1]): Active; TGI (MC-38 [3]): Active; Activity (MC-38 [5]): Active; Activity (MC-38 [6]): Active; Activity (MC-38 [8]): Active; TGI (MC-38 [12]): Active; Activity (MC-38 [13]): Active; Activity (MC-38 [15]): Active
2 | CCc1cccc2c1ccc1c3occ(C)c3c(=O)oc21 | – | – | – | – | – | – | – | – | – | EC50 (SK-BR-3): 0.1 µg/mL; EC50 (MCF7): 0.45 µg/mL; EC50 (ZR-75-1): 0.18 µg/mL
3 | Cc1c(COc2cc(OCc3cccc(C#N)c3)c(CN3C[C@@H](O)C[C@H]3C(=O)O)cc2Cl)cccc1-c1ccc2c(c1)OCCO2 | – | – | – | – | – | – | – | – | 1.4 | –
4 | Cc1c(COc2ccc(CN3Cc4ccccc4CC3C(=O)O)c(Oc3cc(=O)oc4ccccc34)c2)cccc1-c1ccccc1 (racemic) | – | – | – | Active | – | – | – | – | – | –
5 | COc1nc(OCc2cccc(-c3ccccc3)c2C)ccc1CNCCNC(C)=O | Active | Active | Active | – | – | Active | Active | Active | 11 | Activity (Jurkat [18]): Non-Toxic; Activity (MC-38 [19]): Active; Activity (MC-38 [20]): Active; Activity (MC-38 [21]): Active; Activity (MC-38 [22]): Active
6 | O=C(O)[C@@H]1Cc2ccccc2CN1Cc1ccc(OCc2cccc(-c3ccccc3)c2Br)cc1Oc1cc(=O)oc2c1ccc1ccccc12 | Active | Active | Active | – | Toxic | Active | Active | Active | – | –
